{"source": "patent US8012466B2", "about": "“Immunogenic compositions for activating γδ T cells” (priority 2008, dated 2011)", "key": {"[1]": {"system": "Vγ9/Vδ2", "conditions": "cited from earlier work"}, "[2]": {"system": "Vγ2Vδ2 T cells", "assay": "In vitro HMBPP response of rhesus monkey PBMC", "type": "cell-based", "conditions": "PBMC stimulated with 100 nM HMBPP", "description": "FIG. 7. Characteristics of rhesus monkey Vγ2Vδ2 T cells. (A). Large in vitro HMBPP responses by Vγ2Vδ2 T cells from most rhesus monkeys. […] (B). Uniform memory subset distribution of rhesus monkey Vγ2Vδ2 T cells. PBMC from 22 monkeys were stained for Vδ2, […], and […]. Vδ2^+ cells were divided in 4 groups based on their expression of CD28 and CD27.\nMemory subset distribution and HMBPP response of rhesus monkey Vγ2Vδ2 T cells—In preparation for in vivo immunization of rhesus monkey, we screened 33 monkeys for their ability to respond to HMBPP in vitro, γδ T cells levels, V gene expression, and memory subset distribution. […] Like human Vγ2Vδ2 T cells, monkey Vγ2Vδ2 T cells also could be divided into 4 subsets based on expression of CD28 and CD27 (TEarly=central memory=CD28^+27^+, TEarly CD27−=CD28^+27^−, TIntermediate=CD28^−27^+, and TLate CD45RA+=CD28^−27^−). However, unlike human donors, there were very few monkeys with a predominance of the TLate RA subset. Moreover, whereas Vγ2Vδ2 T cells constituted 73% of human adult γδ T cells, Vγ2Vδ2 T cells constituted only 29% of monkey γδ T cells consistent with our earlier study. […]"}, "[3]": {"system": "Vγ2Vδ2 T cells", "assay": "Immunization of rhesus monkeys with zoledronate and HMBPP plus sc IL-2", "type": "in vivo, rhesus monkey", "conditions": "for in vitro reactivity of PBMC to HMBPP after immunization: PBMC before and ~2 weeks after each immunization, cultured with HMBPP 9 days; for outcome of repeated immunization in vivo: zoledronate 0.06 mg/kg sc or iv twice, then HMBPP 70 mg/kg iv, sc IL-2"}, "[4]": {"system": "Vγ2Vδ2 TCR transfectant, DBS43", "assay": "IL-2 release by Vγ2Vδ2 TCR transfectant DBS43", "type": "cell-based", "conditions": "unpublished data"}}, "note": "“Also recorded” adds a separate entry of the source.", "data": [{"molecule": "CC(O)(CBr)CCOP(=O)(O)OP(=O)(O)O", "note": "(centres unmarked) [BrHPP, bromohydrin pyrophosphate]", "values": [{"measurement": "return of expansion to baseline", "setting": "[1]; cynomolgus monkey, in vivo", "value": "10 to 15", "unit": "days"}, {"measurement": "expansion of Vγ9/Vδ2", "setting": "[1]; first and successive infusions", "value": "transiently expand; also recorded: less vigorous expansions"}]}, {"molecule": "C/C(=C\\COP(=O)(O)OP(=O)(O)O)CO", "note": "[HMBPP, (E)-4-hydroxy-3-methyl-but-2-enyl pyrophosphate]", "values": [{"measurement": "monkeys with expansion to >40%", "setting": "[2]", "value": "32/33"}, {"measurement": "in vitro reactivity of PBMC to HMBPP after immunization", "setting": "[3]", "value": "leads to loss of in vitro reactivity to HMBPP"}, {"measurement": "outcome of repeated immunization in vivo", "setting": "[3]", "value": "leads to immune exhaustion"}, {"measurement": "IL-2 release", "setting": "[4]", "value": "release IL-2 in response to HMBPP"}]}, {"molecule": "O=P(O)(O)C(O)(Cn1ccnc1)P(=O)(O)O", "note": "[zoledronate]", "values": [{"measurement": "in vitro reactivity of PBMC to HMBPP after immunization", "setting": "[3]", "value": "leads to loss of in vitro reactivity to HMBPP"}, {"measurement": "outcome of repeated immunization in vivo", "setting": "[3]", "value": "loss of in vivo (FIG. 8) and in vitro proliferation by Vγ2Vδ2 T cells to antigenic stimulation; also recorded: leads to immune exhaustion"}]}]}
